The nature of data set [1]: Aqueous solubility of the compound. Type of data set: physicochemical. To be noted: aqueous medium.
A short description of data set [2]: Dissociation constant, pKa of the compound. Type of data set: physicochemical.
Data set [3] can be described thus: Lipophilicity, log P of the compound. Type of data set: physicochemical. To be noted: octanol/water.
Data set [4] in a line: Oral bioavailability in rat at 10 mg/kg. Type of data set: ADME, organism-based. To be noted: in vivo.
Data set [5] is described as follows: Tmax in rat at 10 mg/kg, po. Type of data set: ADME, organism-based. As to conditions: in vivo.

Some results are limits rather than exact numbers.

One may read the solubility as the dissolved amount per volume that the medium holds. Lower therefore signals little dissolved substance. Regarding `COc1ccccc1S(=O)(=O)/C=C/c1ccccc1Cl`, in data set [1], the solubility is < 0.01 mg/mL.
The pKa is the pH at which an ionisable group is half protonated. Lower therefore signals a group that gives up its proton readily. What is called logP is the decadic logarithm of the partition coefficient of the neutral form, usually between octanol and water. In general, bioavailability refers to the share of a dose that reaches the circulation, judged against a reference dose that is usually intravenous. High values mean good availability, low ones poor availability. A word on the Tmax: it is the time from dosing to the highest level. As to `Cl.O=S(=O)(/C=C/c1ncccc1F)c1ccc(OCCCN2CCOCC2)cc1`, the pKa in data set [2] worked out at 7.58. In addition, the solubility in data set [1] is > 30 mg/mL. In data set [3], this compound displayed a logP of 2.29. In data set [4], this compound yielded a bioavailability of 45.3%. Also, the Tmax in data set [5] was 24 min.

The values are drawn from ChEMBL document CHEMBL4330092, “Optimization of Vinyl Sulfone Derivatives as Potent Nuclear Factor Erythroid 2-Related Factor 2 (Nrf2) Activators for Parkinson's Disease Therapy” (J Med Chem, 2019).
